The numbers were not newly measured in US8173824B2, “Process for producing vitamin D derivative using convergent method” (Chugai Seiyaku Kabushiki Kaisha, priority 2005, dated 2012), which cites them from elsewhere.

For one series, the system named is human keratinocyte. The following applies: background statement, see WO 2001/096293.
The conditions of series [1]: compared with the conventional vitamin D derivatives; background statement.

Molecules are shown by their SMILES.

For the molecule `C=C1/C(=C\C=C2/CCC[C@]3(C)C([C@H](C)OCC(=O)NCC(F)(F)C(F)(F)F)=CCC23)C[C@@H](O)C[C@@H]1O` (stereo partly drawn) [Formula (1), [{(5Z,7E)-(1S,3R,20S)-1,3-dihydroxy-9,10-secopregna-5,7,10(19),16-tetraen-20-yl}oxy]-N-(2,2,3,3,3-pentafluoropropyl)acetamide], in the series on human keratinocyte, the “human keratinocyte growth inhibition activity” value was “exhibits useful human keratinocyte growth inhibition activity”. Also, the calcium level-raising activity result in series [1] was “lower than the conventional vitamin D derivatives”.
